Laboratory results as given in patent publication US9169254B2, “Spiroimidazolone derivative” (Chugai Seiyaku Kabushiki Kaisha, priority 2009, dated 2015).

The compounds below were run against T1, human PTH1 receptor (Homo sapiens, UniProt Q03431) (assay: In vitro cAMP signal activity in HKRK-B7 cells (LLC-PK1 cells overexpressing the human PTH1 receptor)). Conditions: 0.1 µM.
T1 sequence (Q03431 27-593): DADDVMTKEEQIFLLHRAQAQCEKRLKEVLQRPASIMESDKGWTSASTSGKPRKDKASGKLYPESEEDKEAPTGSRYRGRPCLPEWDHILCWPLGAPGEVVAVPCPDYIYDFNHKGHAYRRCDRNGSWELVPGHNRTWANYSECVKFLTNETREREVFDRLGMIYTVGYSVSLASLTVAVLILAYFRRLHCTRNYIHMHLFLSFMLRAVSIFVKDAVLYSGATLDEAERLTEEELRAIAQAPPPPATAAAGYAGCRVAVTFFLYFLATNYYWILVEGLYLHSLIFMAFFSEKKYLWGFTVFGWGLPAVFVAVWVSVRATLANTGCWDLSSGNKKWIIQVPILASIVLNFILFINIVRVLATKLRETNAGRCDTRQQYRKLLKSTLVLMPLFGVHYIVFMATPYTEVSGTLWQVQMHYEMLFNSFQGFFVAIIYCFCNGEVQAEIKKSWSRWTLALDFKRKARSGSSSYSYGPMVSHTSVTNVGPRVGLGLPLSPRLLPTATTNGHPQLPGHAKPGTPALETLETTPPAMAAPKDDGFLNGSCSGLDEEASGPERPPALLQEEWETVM
Type: cell-based
With `Cc1cc(N(C)C(N)=O)cc(C)c1CCS(=O)(=O)N1CCC2(CC1)N=C(c1cccc(C(F)(F)C(F)(F)C(F)(F)C(F)(F)F)c1)NC2=O` [Compound 1341, 1-(3,5-dimethyl-4-{2-[2-(3-nonafluorobutyl-phenyl)-4-oxo-1,3,8-triaza-spiro[4.5]dec-1-ene-8-sulfonyl]-ethyl}-phenyl)-1-methyl-urea] the “cAMP production activity (%)” value was 83%.

Same assay, conditions: HKRK-B7 cells; compound at 1×10^−3 M; […]; 0.1 µM
`Cc1cc(N(C)C(N)=S)cc(C)c1CCS(=O)(=O)N1CCC2(CC1)N=C([C@H]1CC[C@H](C)CC1)NC2=O` [Compound 474, 1-(3,5-Dimethyl-4-{2-[2-(4-methyl-cyclohexyl)-4-oxo-1,3,8-triaza-spiro[4.5]dec-1-ene-8-sulfonyl]-ethyl}-phenyl)-1-methyl-thiourea] was tested, and the “cAMP production activity (%)” value was 89%.

Same assay, conditions: HKRK-B7 cells; compound at 1×10^−3 M; cAMP produced as percentage of that produced by hPTH(1-34) at 100 nM
`O=C1NC(C2CCCCC2)=NC12CCN(S(=O)(=O)C/C=C/c1cccc3c1ccn3C[C@H](O)CO)CC2` [Compound 253, 2-Cyclohexyl-8-{(E)-3-[1-((S)-2,3-dihydroxy-propyl)-1H-indol-4-yl]-prop-2-ene-1-sulfonyl}-1,3,8-triaza-spiro[4.5]dec-1-en-4-one] was tested, and the “cAMP production activity (%)” value was 54%. `CC(=O)Nc1ccc(CCS(=O)(=O)N2CCC3(CC2)N=C(C2CCCCCC2)NC3=O)c(C)c1` [Compound 917, N-{4-[2-(2-Cycloheptyl-4-oxo-1,3,8-triaza-spiro[4.5]dec-1-ene-8-sulfonyl)-ethyl]-3-methyl-phenyl}-acetamide] was tested, and the “cAMP production activity (%)” value was 69%. In the case of `Cc1cc2nc(N)oc2c(C)c1CCS(=O)(=O)N1CCC2(CC1)N=C(C1CCC(C)CC1)NC2=O` (centres unmarked) [Compound 1178, 8-[2-(2-Amino-5,7-dimethyl-benzoxazol-6-yl)-ethanesulfonyl]-2-(4-methyl-cyclohexyl)-1,3,8-triaza-spiro[4.5]dec-1-en-4-one], the “cAMP production activity (%)” value is reported as 84%. `CCOc1c(N(C)c2cc(C)c(CCS(=O)(=O)N3CCC4(CC3)N=C([C@H]3CC[C@H](C)CC3)NC4=O)c(C)c2)c(=O)c1=O` [Compound 1367, 3-[(3,5-Dimethyl-4-{2-[2-(4-methyl-cyclohexyl)-4-oxo-1,3,8-triaza-spiro[4.5]dec-1-ene-8-sulfonyl]-ethyl}-phenyl)-methyl-amino]-4-ethoxy-cyclobut-3-ene-1,2-dione] was tested, and the “cAMP production activity (%)” value was 58%. In the case of `Cc1cc(S(C)(=O)=O)ccc1/C=C/S(=O)(=O)N1CCC2(CC1)N=C(c1cccc(C(F)(F)F)c1)NC2=O` [Compound 593, 8-[(E)-2-(4-methanesulfonyl-2-methyl-phenyl)-ethenesulfonyl]-2-(3-trifluoromethyl-phenyl)-1,3,8-triaza-spiro[4.5]dec-1-en-4-one], the “cAMP production activity (%)” value is reported as 28%. In the case of `CNc1cc(C)c(/C=C/[S@TB3](=O)(=O)N2CCC3(CC2)N=C(CCCCCCCCCCCNC(=O)OC(C)(C)C)NC3=O)c(C)c1` [Compound 1106, (11-{8-[(E)-2-(2,6-dimethyl-4-methylamino-phenyl)-ethenesulfonyl]-4-oxo-1,3,8-triaza-spiro[4.5]dec-1-en-2-yl}-undecyl)-carbamic acid tert-butyl ester], the “cAMP production activity (%)” value is reported as 58%. In the case of `Cc1ccc(C(=O)N(C)C)cc1CCS(=O)(=O)N1CCC2(CC1)N=C(c1cccc(OC(F)(F)F)c1)NC2=O` [Compound 412, 4,N,N-Trimethyl-3-{2-[4-oxo-2-(3-trifluoromethoxy-phenyl)-1,3,8-triaza-spiro[4.5]dec-1-ene-8-sulfonyl]-ethyl}-benzamide], the “cAMP production activity (%)” value is reported as 54%. `Cc1cc(C(=O)N(C)C)ccc1CCS(=O)(=O)N1CCC2(CC1)N=C(/C=C/c1cccc(C(F)(F)F)c1)NC2=O` [Compound 892, 3,N,N-trimethyl-4-(2-{4-oxo-2-[(E)-2-(3-trifluoromethyl-phenyl)-vinyl]-1,3,8-triaza-spiro[4.5]dec-1-ene-8-sulfonyl}-ethyl)-benzamide] was tested, and the “cAMP production activity (%)” value was 51%. In the case of `COc1c(N(C)C(N)=O)cc(C)c(/C=C/S(=O)(=O)N2CCC3(CC2)N=C([C@H]2CC[C@H](C)CC2)NC3=O)c1C` [Compound 693, 1-(2-Methoxy-3,5-dimethyl-4-{(E)-2-[2-(4-methyl-cyclohexyl)-4-oxo-1,3,8-triaza-spiro[4.5]dec-1-ene-8-sulfonyl]-vinyl}-phenyl)-1-methyl-urea], the “cAMP production activity (%)” value is reported as 103%. With `Cc1cc(N(C)C(=O)C(F)(F)F)cc(C)c1CCS(=O)(=O)N1CCC2(CC1)N=C([C@H]1CC[C@H](C)CC1)NC2=O` [Compound 931, N-(3,5-Dimethyl-4-{2-[2-(4-methyl-cyclohexyl)-4-oxo-1,3,8-triaza-spiro[4.5]dec-1-ene-8-sulfonyl]-ethyl}-phenyl)-2,2,2-trifluoro-N-methyl-acetamide] the “cAMP production activity (%)” value was 72%. With `Cc1cc2ccc1CCS(=O)(=O)N1CCC3(CC1)N=C(NC3=O)c1cc(cc(C(F)(F)F)c1)OCC/C=C/CNC(=O)CN(C)C2=O` [Compound 1422] the “cAMP production activity (%)” value was 15%. In the case of `Cc1cc(N(C)C(N)=O)cc(C)c1CCS(=O)(=O)N1CCC2(CC1)N=C(C1CCC(C(F)(F)F)CC1)NC2=O` (centres unmarked) [Compound 472, 1-(3,5-Dimethyl-4-{2-[4-oxo-2-(4-trifluoromethyl-cyclohexyl)-1,3,8-triaza-spiro[4.5]dec-1-ene-8-sulfonyl]-ethyl}-phenyl)-1-methyl-urea], the “cAMP production activity (%)” value is reported as 104%. `Cc1cc(C(=O)N2CCC(O)(CF)CC2)cc(C)c1/C=C/S(=O)(=O)N1CCC2(CC1)N=C(c1ccc(Cl)c(OC(C)(C)C(F)(F)F)c1)NC2=O` [Compound 1271, 2-[4-chloro-3-(2,2,2-trifluoro-1,1-dimethyl-ethoxy)-phenyl]-8-{(E)-2-[4-(4-fluoromethyl-4-hydroxy-piperidine-1-carbonyl)-2,6-dimethyl-phenyl]-ethenesulfonyl}-1,3,8-triaza-spiro[4.5]dec-1-en-4-one] was tested, and the “cAMP production activity (%)” value was 92%. In the case of `Cc1ccc(C(=O)N2CCN(C)CC2)cc1CCS(=O)(=O)N1CCC2(CC1)N=C(c1cccc(OC(F)(F)F)c1)NC2=O` [Compound 414, 8-{2-[2-methyl-5-(4-methyl-piperazine-1-carbonyl)-phenyl]-ethanesulfonyl}-2-(3-trifluoromethoxy-phenyl)-1,3,8-triaza-spiro[4.5]dec-1-en-4-one], the “cAMP production activity (%)” value is reported as 69%. With `Cc1cc(C(=O)N2CCC(C)(O)CC2)cc(C)c1/C=C/S(=O)(=O)N1CCC2(CC1)N=C(c1ccc(F)c(OCCCC(F)(F)F)c1)NC2=O` [Compound 1218, 2-[4-fluoro-3-(4,4,4-trifluoro-butoxy)-phenyl]-8-{(E)-2-[4-(4-hydroxy-4-methyl-piperidine-1-carbonyl)-2,6-dimethyl-phenyl]-ethenesulfonyl}-1,3,8-triaza-spiro[4.5]dec-1-en-4-one] the “cAMP production activity (%)” value was 90%. For `Cc1cc(N2C(=O)CC[C@@H]2CO)ccc1CCS(=O)(=O)N1CCC2(CC1)N=C(c1cccc(C(F)(F)F)c1)NC2=O` [Compound 268, 8-{2-[4-((R)-2-Hydroxymethyl-5-oxo-pyrrolidin-1-yl)-2-methyl-phenyl]-ethanesulfonyl}-2-(3-trifluoromethyl-phenyl)-1,3,8-triaza-spiro[4.5]dec-1-en-4-one], the “cAMP production activity (%)” value was 99%. `CCCCC1CCC(C2=NC3(CCN(S(=O)(=O)CCc4ccc(NC(C)=O)cc4C)CC3)C(=O)N2)CC1` (centres unmarked) [Compound 905, N-(4-{2-[2-(4-butyl-cyclohexyl)-4-oxo-1,3,8-triaza-spiro[4.5]dec-1-ene-8-sulfonyl]-ethyl}-3-methyl-phenyl)-acetamide] was tested, and the “cAMP production activity (%)” value was 75%. With `COC(=O)c1cc(C)c(S(=O)(=O)N2CCC3(CC2)N=C(C2CCCCC2)NC3=O)s1` [Compound 63, 5-(2-cyclohexyl-4-oxo-1,3,8-triaza-spiro[4.5]dec-1-ene-8-sulfonyl)-4-methyl-thiophene-2-carboxylic acid methyl ester] the “cAMP production activity (%)” value was 51%. For `[2H]C([2H])([2H])C([2H])([2H])C1=CC[C@H](C2=NC3(CCN([S@TB18](=O)(=O)CCc4c(C)cc(N(C)C(N)=O)cc4C)CC3)C(=O)N2)CC1` [Compound 1149, 1-(4-{2-[2-(4-[1,1,2,2,2-^2H5]ethyl-cyclohex-3-enyl)-4-oxo-1,3,8-triaza-spiro[4.5]dec-1-ene-8-sulfonyl]-ethyl}-3,5-dimethyl-phenyl)-1-methyl-urea], the “cAMP production activity (%)” value was 98%. With `Cc1cc(C(=O)N(C)C)ccc1CCS(=O)(=O)N1CCC2(CC1)N=C(c1ccc(Cl)c(C(F)(F)F)c1)NC2=O` [Compound 126, 4-{2-[2-(4-chloro-3-trifluoromethyl-phenyl)-4-oxo-1,3,8-triaza-spiro[4.5]dec-1-ene-8-sulfonyl]-ethyl}-3,N,N-trimethyl-benzamide] the “cAMP production activity (%)” value was 79%. In the case of `Cc1cc(C2=NC3(CCN(S(=O)(=O)CCc4ccc(C(=O)N(C)C)cc4C)CC3)C(=O)N2)ccc1F` [Compound 117, 4-{2-[2-(4-fluoro-3-methyl-phenyl)-4-oxo-1,3,8-triaza-spiro[4.5]dec-1-ene-8-sulfonyl]-ethyl}-3,N,N-trimethyl-benzamide], the “cAMP production activity (%)” value is reported as 61%.
